Data taken from article PMC6848746 (Psychopharmacology, 2019).
Where two headings read alike, the source gives them in different places.

Assays:
[1] = target: T1, α2C (Homo sapiens, UniProt P18825); test: Radioligand binding; conditions: for fold lower affinity for α2C compared to 2-AI: binding, [3H]rauwolscine
T1 sequence (P18825 1-462): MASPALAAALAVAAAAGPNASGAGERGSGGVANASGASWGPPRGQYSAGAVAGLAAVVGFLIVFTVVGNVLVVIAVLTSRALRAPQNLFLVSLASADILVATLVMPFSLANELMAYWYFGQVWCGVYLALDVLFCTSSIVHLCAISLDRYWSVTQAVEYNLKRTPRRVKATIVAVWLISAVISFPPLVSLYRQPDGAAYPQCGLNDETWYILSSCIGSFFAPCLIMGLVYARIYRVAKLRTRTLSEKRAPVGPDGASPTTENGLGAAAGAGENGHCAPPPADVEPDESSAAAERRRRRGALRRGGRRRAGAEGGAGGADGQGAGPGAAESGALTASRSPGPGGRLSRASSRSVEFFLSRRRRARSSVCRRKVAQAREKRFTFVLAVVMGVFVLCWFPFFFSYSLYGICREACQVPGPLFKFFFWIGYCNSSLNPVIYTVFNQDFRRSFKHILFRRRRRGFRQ

[2] = target: 5-HT7 (Homo sapiens, UniProt P34969); test: Radioligand binding
[3] = target: T2, 5-HT1A (Homo sapiens, UniProt P08908); test: Radioligand binding
T2 sequence (P08908 1-422): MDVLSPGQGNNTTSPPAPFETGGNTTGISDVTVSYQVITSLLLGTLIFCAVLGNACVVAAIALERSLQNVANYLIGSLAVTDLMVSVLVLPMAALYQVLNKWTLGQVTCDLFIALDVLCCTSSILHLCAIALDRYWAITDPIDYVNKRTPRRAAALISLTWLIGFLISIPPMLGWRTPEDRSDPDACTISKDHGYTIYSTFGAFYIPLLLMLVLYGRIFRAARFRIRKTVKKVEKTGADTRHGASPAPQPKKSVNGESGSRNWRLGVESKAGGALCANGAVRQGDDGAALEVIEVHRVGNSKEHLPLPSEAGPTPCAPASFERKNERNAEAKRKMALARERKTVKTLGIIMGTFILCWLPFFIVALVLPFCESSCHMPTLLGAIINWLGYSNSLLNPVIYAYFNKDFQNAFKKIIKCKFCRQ

[4] = target: D2 (Homo sapiens, UniProt P14416); test: Radioligand binding
[5] = target: 5-HT6 (Homo sapiens, UniProt P50406); test: Radioligand binding
[6] = target: T3, α2B (Homo sapiens, UniProt P18089); test: Radioligand binding; conditions: for fold lower affinity for α2B compared to 2-AI: binding, [3H]rauwolscine
T3 sequence (P18089 1-450): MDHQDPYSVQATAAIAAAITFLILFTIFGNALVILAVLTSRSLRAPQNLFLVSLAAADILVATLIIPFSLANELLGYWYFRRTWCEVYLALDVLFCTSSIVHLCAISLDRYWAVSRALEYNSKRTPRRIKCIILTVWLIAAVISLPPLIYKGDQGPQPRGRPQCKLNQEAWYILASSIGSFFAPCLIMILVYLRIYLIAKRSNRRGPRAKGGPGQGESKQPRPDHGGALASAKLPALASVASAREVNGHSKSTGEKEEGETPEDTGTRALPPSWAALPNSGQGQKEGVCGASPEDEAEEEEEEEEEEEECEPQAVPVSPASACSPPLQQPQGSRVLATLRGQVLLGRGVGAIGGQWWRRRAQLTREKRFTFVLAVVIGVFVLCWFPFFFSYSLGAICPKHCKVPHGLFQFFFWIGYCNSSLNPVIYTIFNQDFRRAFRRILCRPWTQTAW

[7] = target: SERT (Homo sapiens, UniProt P31645); test: Radioligand binding
[8] = target: NET (Homo sapiens, UniProt P23975); test: Radioligand binding
[9] = target: T4, α1A (Homo sapiens, UniProt P35348); test: Radioligand binding
T4 sequence (P35348 1-466): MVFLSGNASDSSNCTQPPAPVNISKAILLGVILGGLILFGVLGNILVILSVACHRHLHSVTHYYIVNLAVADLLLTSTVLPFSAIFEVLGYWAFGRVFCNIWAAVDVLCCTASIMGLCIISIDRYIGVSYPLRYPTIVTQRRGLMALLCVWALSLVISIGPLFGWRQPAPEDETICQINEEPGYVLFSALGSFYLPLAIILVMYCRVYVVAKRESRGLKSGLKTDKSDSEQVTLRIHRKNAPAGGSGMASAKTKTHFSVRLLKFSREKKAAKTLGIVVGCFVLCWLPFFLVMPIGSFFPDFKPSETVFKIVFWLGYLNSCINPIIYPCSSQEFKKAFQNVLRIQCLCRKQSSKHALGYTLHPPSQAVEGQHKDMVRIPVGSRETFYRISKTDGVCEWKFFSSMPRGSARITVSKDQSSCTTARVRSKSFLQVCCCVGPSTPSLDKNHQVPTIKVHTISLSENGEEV

[10] = target: 5-HT2A (Homo sapiens, UniProt P28223); test: Radioligand binding
[11] = test system: rats; conditions: drug discrimination, cited from earlier work
[12] = target: 5-HT2B (Homo sapiens, UniProt P41595); test: Radioligand binding
[13] = target: 5-HT1B (Homo sapiens, UniProt P28222); test: Radioligand binding
[14] = target: β3 (Homo sapiens, UniProt P13945); test: Radioligand binding
[15] = target: 5-HT1E (Homo sapiens, UniProt P28566); test: Radioligand binding
[16] = target: T5, σ2 (Rattus norvegicus, UniProt Q5U3Y7); test: Radioligand binding
T5 sequence (Q5U3Y7 1-176): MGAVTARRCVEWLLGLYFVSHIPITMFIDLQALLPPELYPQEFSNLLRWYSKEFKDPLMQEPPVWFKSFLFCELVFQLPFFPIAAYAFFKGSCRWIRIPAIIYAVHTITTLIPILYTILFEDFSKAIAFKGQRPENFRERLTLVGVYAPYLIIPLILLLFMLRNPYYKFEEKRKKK

[17] = target: DAT (Rattus norvegicus, UniProt P23977); test: DAT-mediated release of [3H]MPP+ from rat brain synaptosomes; assay type: biochemical; conditions: for DAT/NET ratio: (DAT EC50)^-1 ÷ (NET EC50)^-1; for DAT/NET ratio / DAT/SERT ratio: higher value = greater DAT selectivity; for DAT/SERT ratio: (DAT EC50)^-1 ÷ (SERT EC50)^-1; for Emax: read-out: DAT-mediated release Emax; for fold lower release potency at DAT: relative to SERT (MDAI: relative to SERT and NET), synaptosomal release
[18] = target: 5-HT1D (Homo sapiens, UniProt P28221); test: Radioligand binding
[19] = ref Oberlender and Nichols, 1991

Sequence of SERT (P31645 whole entry): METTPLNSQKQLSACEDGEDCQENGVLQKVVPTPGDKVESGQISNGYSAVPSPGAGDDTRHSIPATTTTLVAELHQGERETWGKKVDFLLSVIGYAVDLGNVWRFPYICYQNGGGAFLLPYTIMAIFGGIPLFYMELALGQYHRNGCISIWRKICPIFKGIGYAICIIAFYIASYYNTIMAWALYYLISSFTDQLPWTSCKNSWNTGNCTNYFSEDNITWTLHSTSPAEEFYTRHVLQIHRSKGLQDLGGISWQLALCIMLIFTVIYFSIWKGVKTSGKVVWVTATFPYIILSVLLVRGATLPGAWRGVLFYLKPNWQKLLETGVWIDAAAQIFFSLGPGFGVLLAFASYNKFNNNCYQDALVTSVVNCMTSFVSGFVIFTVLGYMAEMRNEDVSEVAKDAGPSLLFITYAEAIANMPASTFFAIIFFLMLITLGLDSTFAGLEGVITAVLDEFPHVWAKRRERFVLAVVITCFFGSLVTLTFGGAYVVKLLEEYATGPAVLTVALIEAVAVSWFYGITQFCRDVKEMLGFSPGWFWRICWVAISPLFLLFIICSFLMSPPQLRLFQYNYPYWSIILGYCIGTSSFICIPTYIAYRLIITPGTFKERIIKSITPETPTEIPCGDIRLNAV
Sequence of 5-HT1D (P28221 whole entry): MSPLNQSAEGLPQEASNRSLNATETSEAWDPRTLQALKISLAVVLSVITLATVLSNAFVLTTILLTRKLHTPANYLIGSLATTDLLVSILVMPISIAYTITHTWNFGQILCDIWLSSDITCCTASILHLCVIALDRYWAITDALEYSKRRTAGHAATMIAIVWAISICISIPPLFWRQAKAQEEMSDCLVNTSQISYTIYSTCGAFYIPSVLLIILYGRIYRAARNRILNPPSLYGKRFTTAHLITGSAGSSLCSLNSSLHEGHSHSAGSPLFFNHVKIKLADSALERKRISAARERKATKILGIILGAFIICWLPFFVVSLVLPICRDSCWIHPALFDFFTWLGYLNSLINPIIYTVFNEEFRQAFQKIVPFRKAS
Sequence of β3 (P13945 whole entry): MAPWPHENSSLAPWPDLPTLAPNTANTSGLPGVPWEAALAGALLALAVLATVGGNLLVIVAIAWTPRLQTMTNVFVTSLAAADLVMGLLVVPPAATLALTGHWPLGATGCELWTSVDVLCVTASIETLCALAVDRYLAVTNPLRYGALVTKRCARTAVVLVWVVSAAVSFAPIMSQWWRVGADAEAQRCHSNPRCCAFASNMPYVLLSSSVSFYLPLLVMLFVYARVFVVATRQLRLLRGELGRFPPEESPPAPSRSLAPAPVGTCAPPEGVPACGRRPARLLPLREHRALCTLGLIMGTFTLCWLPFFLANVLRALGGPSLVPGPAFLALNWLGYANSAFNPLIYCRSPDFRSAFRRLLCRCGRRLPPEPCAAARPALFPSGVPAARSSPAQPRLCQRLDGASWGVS
Sequence of 5-HT1E (P28566 whole entry): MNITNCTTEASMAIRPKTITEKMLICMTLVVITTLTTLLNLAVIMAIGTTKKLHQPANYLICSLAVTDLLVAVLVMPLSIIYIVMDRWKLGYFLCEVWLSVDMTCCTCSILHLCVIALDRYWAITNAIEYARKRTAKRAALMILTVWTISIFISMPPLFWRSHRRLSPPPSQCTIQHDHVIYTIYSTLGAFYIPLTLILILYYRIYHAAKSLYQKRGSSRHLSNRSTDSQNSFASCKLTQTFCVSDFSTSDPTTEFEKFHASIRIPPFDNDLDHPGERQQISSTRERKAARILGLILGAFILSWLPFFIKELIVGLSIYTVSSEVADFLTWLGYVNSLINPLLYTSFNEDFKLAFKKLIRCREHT
Sequence of DAT (P23977 whole entry): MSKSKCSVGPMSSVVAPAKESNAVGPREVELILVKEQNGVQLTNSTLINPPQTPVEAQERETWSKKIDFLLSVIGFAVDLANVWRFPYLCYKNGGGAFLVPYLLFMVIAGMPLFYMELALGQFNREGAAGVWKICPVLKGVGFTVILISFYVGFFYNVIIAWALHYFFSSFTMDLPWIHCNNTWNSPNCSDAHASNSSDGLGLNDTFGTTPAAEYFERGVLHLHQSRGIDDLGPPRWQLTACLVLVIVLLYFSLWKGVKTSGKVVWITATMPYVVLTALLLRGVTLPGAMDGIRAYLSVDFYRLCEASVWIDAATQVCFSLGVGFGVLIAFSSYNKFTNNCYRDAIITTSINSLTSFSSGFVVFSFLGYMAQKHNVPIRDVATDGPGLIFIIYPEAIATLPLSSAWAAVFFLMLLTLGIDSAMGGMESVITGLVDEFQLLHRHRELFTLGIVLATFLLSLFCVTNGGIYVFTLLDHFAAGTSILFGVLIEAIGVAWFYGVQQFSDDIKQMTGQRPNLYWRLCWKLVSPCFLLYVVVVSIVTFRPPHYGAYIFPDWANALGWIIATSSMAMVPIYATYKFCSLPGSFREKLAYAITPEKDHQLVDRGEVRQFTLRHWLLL
Sequence of 5-HT2B (P41595 whole entry): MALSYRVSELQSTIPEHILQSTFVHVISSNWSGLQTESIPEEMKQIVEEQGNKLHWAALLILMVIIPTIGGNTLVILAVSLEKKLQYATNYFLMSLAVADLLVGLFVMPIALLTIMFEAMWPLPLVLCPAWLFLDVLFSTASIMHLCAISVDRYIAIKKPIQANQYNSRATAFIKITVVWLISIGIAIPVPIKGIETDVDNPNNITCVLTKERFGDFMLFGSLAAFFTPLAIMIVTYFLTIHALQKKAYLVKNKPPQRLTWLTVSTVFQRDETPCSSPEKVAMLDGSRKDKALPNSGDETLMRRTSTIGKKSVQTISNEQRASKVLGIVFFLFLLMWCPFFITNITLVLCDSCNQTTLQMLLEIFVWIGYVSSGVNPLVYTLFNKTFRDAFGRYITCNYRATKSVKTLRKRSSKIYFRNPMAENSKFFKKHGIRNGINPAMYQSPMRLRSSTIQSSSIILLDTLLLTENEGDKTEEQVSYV
Sequence of 5-HT6 (P50406 whole entry): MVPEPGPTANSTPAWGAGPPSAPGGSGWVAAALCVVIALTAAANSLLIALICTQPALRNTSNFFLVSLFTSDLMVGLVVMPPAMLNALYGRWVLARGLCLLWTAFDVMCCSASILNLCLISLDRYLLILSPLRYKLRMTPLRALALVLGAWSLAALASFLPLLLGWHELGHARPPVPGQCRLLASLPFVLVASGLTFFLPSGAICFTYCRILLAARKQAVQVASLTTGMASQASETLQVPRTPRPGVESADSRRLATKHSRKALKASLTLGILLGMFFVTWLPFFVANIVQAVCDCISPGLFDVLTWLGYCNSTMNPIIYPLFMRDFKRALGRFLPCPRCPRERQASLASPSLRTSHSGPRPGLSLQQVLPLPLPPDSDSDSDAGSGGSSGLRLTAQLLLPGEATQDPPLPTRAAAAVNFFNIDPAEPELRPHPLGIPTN
Sequence of NET (P23975 whole entry): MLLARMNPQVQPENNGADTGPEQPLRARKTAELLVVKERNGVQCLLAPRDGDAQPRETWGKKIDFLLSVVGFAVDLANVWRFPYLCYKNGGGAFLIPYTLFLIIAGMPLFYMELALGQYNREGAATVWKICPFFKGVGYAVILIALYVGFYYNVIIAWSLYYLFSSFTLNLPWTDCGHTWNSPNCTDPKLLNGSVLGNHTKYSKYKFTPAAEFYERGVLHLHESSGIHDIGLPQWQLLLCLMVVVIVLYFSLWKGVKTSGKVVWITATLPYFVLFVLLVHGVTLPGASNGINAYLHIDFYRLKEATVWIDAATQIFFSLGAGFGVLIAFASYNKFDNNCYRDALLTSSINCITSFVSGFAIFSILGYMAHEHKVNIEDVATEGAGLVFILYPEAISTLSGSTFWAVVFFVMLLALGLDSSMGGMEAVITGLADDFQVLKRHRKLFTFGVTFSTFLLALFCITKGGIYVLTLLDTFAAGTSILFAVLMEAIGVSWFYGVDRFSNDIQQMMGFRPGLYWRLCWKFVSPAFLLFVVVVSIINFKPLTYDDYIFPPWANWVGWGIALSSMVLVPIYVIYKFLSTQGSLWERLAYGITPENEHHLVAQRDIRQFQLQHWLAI
Sequence of 5-HT2A (P28223 whole entry): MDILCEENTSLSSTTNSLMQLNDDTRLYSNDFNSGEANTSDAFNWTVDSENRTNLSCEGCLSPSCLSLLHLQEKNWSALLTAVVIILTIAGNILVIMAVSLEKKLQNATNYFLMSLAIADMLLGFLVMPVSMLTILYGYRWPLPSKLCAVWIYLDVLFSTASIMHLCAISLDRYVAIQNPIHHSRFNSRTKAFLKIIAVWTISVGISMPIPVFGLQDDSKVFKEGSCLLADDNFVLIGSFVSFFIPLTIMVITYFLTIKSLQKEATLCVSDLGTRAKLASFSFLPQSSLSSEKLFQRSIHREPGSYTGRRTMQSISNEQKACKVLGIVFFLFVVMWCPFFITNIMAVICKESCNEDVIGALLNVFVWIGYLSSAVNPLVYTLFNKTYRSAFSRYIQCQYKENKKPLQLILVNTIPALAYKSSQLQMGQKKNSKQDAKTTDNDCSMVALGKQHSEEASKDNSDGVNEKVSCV
Sequence of 5-HT1B (P28222 whole entry): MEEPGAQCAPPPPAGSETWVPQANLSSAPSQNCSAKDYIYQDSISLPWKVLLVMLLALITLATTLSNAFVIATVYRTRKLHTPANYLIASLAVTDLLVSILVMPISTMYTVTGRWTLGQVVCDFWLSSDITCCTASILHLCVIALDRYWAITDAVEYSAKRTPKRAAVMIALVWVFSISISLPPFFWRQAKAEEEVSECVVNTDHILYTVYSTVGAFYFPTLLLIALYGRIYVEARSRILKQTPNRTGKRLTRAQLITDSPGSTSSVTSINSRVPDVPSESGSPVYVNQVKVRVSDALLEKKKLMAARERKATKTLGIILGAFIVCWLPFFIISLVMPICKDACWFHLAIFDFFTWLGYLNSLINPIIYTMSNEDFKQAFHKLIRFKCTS

| Compound | Ki [1] [µM] | Ki [2] [µM] | Ki [3] [µM] | Ki [4] [µM] | Ki [5] [µM] | Ki [6] [µM] | Ki [7] [µM] | Ki [8] [µM] | Ki [9] [µM] | Ki [10] [µM] | Ki [12] [µM] | Ki [13] [µM] | Ki [14] [µM] | Ki [15] [µM] | Ki [16] [µM] | EC50 [17] [µM] | DAT/NET ratio [17] | DAT/SERT ratio [17] | Emax [17] [%] | Ki [18] [µM] | other results |
| --- | --- | --- | --- | --- | --- | --- | --- | --- | --- | --- | --- | --- | --- | --- | --- | --- | --- | --- | --- | --- | --- |
| NC1Cc2cc3c(cc2C1)OCO3 [MDAI, 5,6-methylenedioxy-2-aminoindan] | 0.363 ± 0.219 | > 10 | > 10 | > 10 | > 10 | 1.12 | > 10 | > 10 | > 10 | > 10 | > 10 | > 10 | > 10 | > 10 | > 10 | 1.33 | 0.09 | 0.08 | 113 | > 10 | drug-appropriate responding in (+)-methamphetamine-trained rats ([11]; ref Gatch et al. 2016): 75%; substitution in cocaine-trained rats ([11]; ref Gatch et al. 2016): full substitution; substitution for MDMA and S-(+)-MBDB ([11]; ref Nichols et al. 1990, Oberlender and Nichols 1990, Malmusi et al. 1996, Gatch et al. 2016): substituted; substitution in (+)-amphetamine-trained rats [11, 19]: did not substitute; displacement at 5-HT2B receptor ([12]; at 10 μM, primary binding assay): < 50%; fold lower release potency at DAT [17]: 10 fold |
| COc1ccc2c(c1)CC(N)C2 (centres unmarked) [5-MeO-AI, 5-methoxy-2-aminoindan] | 1.22 | > 10 | 2.5 | > 10 | > 10 | 1.55 | > 10 | > 10 | > 10 | > 10 | 4.79 | > 10 | > 10 | > 10 | > 10 | 2.65 | 0.33 | 0.05 | 117 | > 10 | fold lower affinity for α2C compared to 2-AI [1]: 30 fold; fold lower affinity for α2B compared to 2-AI [6]: 5 fold; fold lower release potency at DAT [17]: 20 fold |
| NC1Cc2ccccc2C1 [2-AI, 2-aminoindan] | 0.041 ± 0.026 | > 10 | > 10 | > 10 | > 10 | 0.211 ± 0.081 | > 10 | > 10 | > 10 | > 10 | > 10 | > 10 | > 10 | > 10 | > 10 | 0.439 ± 0.038 | 0.20 | >22.78 | 106 | > 10 | substitution for (+)-amphetamine ([11]; ref Glennon et al. 1984): fully substituted; substitution in (+)-amphetamine-trained rats [11, 19]: partial substitution |
| COc1cc2c(cc1C)CC(N)C2 (centres unmarked) [MMAI, 5-methoxy-6-methyl-2-aminoindan] | 1.38 | 1.01 | 1.08 | > 10 | > 10 | 1.23 | 4.82 | > 10 | > 10 | > 10 | 0.902 ± 0.445 | 2.78 | > 10 | > 10 | > 10 | > 10 | >0.31 | > 0.003 | – | 2.56 | fold lower affinity for α2C compared to 2-AI [1]: 30 fold; fold lower affinity for α2B compared to 2-AI [6]: 5 fold; substitution in (+)-amphetamine-trained rats ([11]; ref Johnson et al. 1991b): did not substitute; substitution in rats trained to discriminate MDMA and S-(+)-MBDB ([11]; ref Johnson et al. 1991b): fully substituted; fold lower release potency at DAT [17]: 100 fold |
